System: OMP-OV38 tumors
Assay: Histology of treated OMP-OV38 tumors
Format: in vivo, NOD/SCID mice
Conditions: paclitaxel alone; data not shown
Method: The treated OMP-OV38 tumors were analyzed by histology.

With `CC(=O)O[C@H]1C(=O)[C@@]2(C)[C@H]([C@H](OC(=O)c3ccccc3)[C@]3(O)C[C@H](OC(=O)[C@H](O)[C@@H](NC(=O)c4ccccc4)c4ccccc4)C(C)=C1C3(C)C)[C@]1(OC(C)=O)CO[C@@H]1C[C@@H]2O` [paclitaxel] as the compound, how does the “histology of the tumors” value read?
Its value is “did not show these effects”.
